The source of these data is patent US20120164128A1, “MEANS AND METHODS FOR COUNTERACTING POLYQ EXPANSION DISORDERS” (Academisch Medisch Centrum, priority 2009, published 2012).

One series has as its system polyQ peptides. Description: Peptidase inhibitor study in cells co-expressing DnaJB6, Western blot against polyQ. The class given is cell-based. The conditions noted are these: inhibitor in combination with DnaJB6, treated for eight hours, FIG. 8B. As to the method: (§1) Cytosolic extracts were generated by lysing cells with 0.1% Triton X-100 for 30 minutes at 4° C., and supernatant was used after spinning down the lysate. 20 μg of cytosolic protein lysates were separated by 18% SDS-PAGE and transferred to Protan nitrocellulose membranes. Membranes were blocked in 5% dry milk in TBS containing 0.3% tween and probed with anti-Polyglutamine 1C2 (MAB1574, Millipore). Preparation of SDS-soluble and SDS-insoluble protein fractions was described before (example 1 and Carra et al., 2008). For peptidase inhibitory studies, transfected cells were treated for eight hours with different peptidase inhibitors before lysates were generated for Western blotting.
To elucidate which clearance pathway led to the degradation of the polyQ peptides, several inhibitors were used in combination with DnaJB6 and DnaJB8. Cysteine proteases were inhibited by E-64, aspartyl proteases by pepstatin A, metalloproteases by bestatin, serine proteases by phenylmethylsulfonyl (PMSF), proteasomes were inhibited by MG-132 and macroautophagy was inhibited by 3-methyladenine (3-MA).

In series [1] the test system is polyQ peptides derived from GFP-Ub-Q65. The series can be described thus: Western blot against polyQ (1C2) of cells expressing GFP-Ub-Q65 with altered TPPII activity. Format: cell-based. The conditions noted are these: for polyQ peptide levels: cells expressing GFP-Ub-Q65, TPPII co-expressed or inhibited, FIG. 10 panel A. As to the method:
as §1
Large polyQ-peptides are preferably cleaved by endo-peptidases, as a few cleavages will result in smaller polyQ peptides below the disease-threshold that can be targeted by recycling amino-peptidases. To measure endo-peptidase activity against glutamines, we designed a probe containing 8 glutamines, flanked by a fluorophore (left) and a quencher (right). When the glutamines are cleaved, the quencher is released from the fluorophore, leading to fluorescence. Since the termini themselves are protected against exo-peptidases, only endo-peptidases can handle the peptide by cleaving the Q stretch. […] Since this experiment was performed with a small Q peptide, we next examined whether TPPII was able to prevent accumulation and aggregation of polyQ peptides derived from GFP-Ub-Q65. […] Some additional high molecular weight bands were present, representing oligomeric complexes. […] When testing two TPPII variants that have an altered conformation and lowered endo- peptidase activity, the levels of polyQ peptides (and resulting aggregates) increased again, showing that TPPII complex formation affects polyQ peptide degradation. […] This was achieved by either co-expressing TPPII or adding the specific inhibitor of TPPII, butabindide. […] Similarly, polyQ fragments generated by the proteasome upon degradation of polyQ expanded proteins were targeted by TPPII. […]
Background: Immunoblotting shows a protein as a band on a membrane.

A further series concerns polyQ peptides (Q65). The series can be described thus: SDS-soluble and SDS-insoluble fractions stained against polyQ. Format: cell-based. The conditions noted are these: co-expression with Q65 peptides; for amount of polyQ peptides in the SDS-insoluble fraction: FIG. 8A. As to the method:
Cytosolic extracts were generated by lysing cells with 0.1% Triton X-100 for 30 minutes at 4° C., and supernatant was used after spinning down the lysate. 20 μg of cytosolic protein lysates were separated by 18% SDS-PAGE and transferred to Protan nitrocellulose membranes. Membranes were blocked in 5% dry milk in TBS containing 0.3% tween and probed with 1:1000 anti-GFP (Molecular Probes), 1:100 anti-Ub (SIGMA) or the anti-Polyglutamine 1C2 (MAB1574, Millipore). Polyclonal Horseradish Peroxidase (HRP) conjugated secondary antibodies, anti-rabbit (Sigma) or anti-mouse (DAKO) were used 1:10.000 to detect the primary antibodies via Lumi-lightPLUS westernblotting substrate (Roche). Preparation of SDS-soluble and SDS-insoluble protein fractions was described before (Carra et al., 2008). Briefly, cells were trypsinized, homogenized, and heated for 10 min at 99° C. in sample buffer (70 mM Tris pH 6.8, 1.5% SDS, 20% glycerol) supplemented with 50 mM DTT 72 hours after transfection. Cell lysates were centrifuged for at least 30 minutes at 14.000 rpm at room temperature. Supernatants were used as SDS-soluble fraction to which 0.05% bromophenol blue was added. Pellets represented SDS-insoluble fractions and were dissolved in 100% formic acid, incubated 30 minutes at 37° C., lyophilized overnight in a speed vac (Eppendorf), and resuspended in a ¼ of the volume of sample buffer containing 0.05% bromophenol blue. Samples were separated on either 18% SDS-PAGE (anti-polyQ), or 12.5% SDS-PAGE (anti-GFP) and further treated as Western blots.
Cytosolic extracts were generated by lysing cells with 0.1% Triton X-100 for 30 minutes at 4° C., and supernatant was used after spinning down the lysate. 20 μg of cytosolic protein lysates were separated by 18% SDS-PAGE and transferred to Protan nitrocellulose membranes. Membranes were blocked in 5% dry milk in TBS containing 0.3% tween and probed with anti-Polyglutamine 1C2 (MAB1574, Millipore). Preparation of SDS-soluble and SDS-insoluble protein fractions was described before (example 1 and Carra et al., 2008). […]

The next series concerns HEK293T cells. The series can be described thus: Scoring of cells with fluorescent aggregates by fluorescence microscopy. The class given is cell-based, Human. The procedure:
Human embryonic kidney cells (HEK293T) and Mel JuSo fibroblast cells where cultured in IMDM (GIBCO) supplemented with 10% FCS and penicillin/streptomycin/L-glutamine. The cells where transiently transfected with Fugene6 (Roche) and analyzed at indicated time-points after transfection. Mouse STHdh^+/+(Q7) cells (kindly provided by Marcy MacDonald) (Trettel et al, 2000) and N2A neuroblastoma cells were cultured in DMEM supplemented with 10% FCS and penicillin/streptomycin/L-glutamine. Neuronal cells where transiently transfected with Lipofectamine 2000 (Invitrogen). Mouse STHdh^+/+(Q7) cells were incubated at 32° C. For toxicity measurements, N2A cells were analyzed by FACS LSRII for GFP fluorescence 24 or 48 hours after transfection, and the percentage of GFP-positive cells was quantified.
HEK293T cells were transfected with indicated constructs and the percentages of aggregates were scored using an inverted fluorescence microscope (Leica DMR). For imaging, Mel Juso cells were transiently transfected with indicated constructs and images where obtained using a confocal microscope (Leica SP2) using a 63× objective. Note that some pictures show ‘over-exposed’ fluorescent aggregates in order to visualize non-sequestered, cytoplasmic staining. […]

As to `CC(C)C[C@H](NC(=O)[C@H]1O[C@@H]1C(=O)O)C(=O)NCCCCN=C(N)N` [E-64], the “polyQ peptide levels despite DnaJB6” value in the series with polyQ peptides was “re-appearance of polyQ peptides”.
The same measure, in the same setting: the same measure for `O=S(=O)(F)Cc1ccccc1` [PMSF, phenylmethylsulfonyl]: “re-appearance of polyQ peptides”.
In the case of `CCCCNC(=O)[C@@H]1Cc2ccccc2N1C(=O)[C@@H](N)CC` [butabindide, reference compound], the polyQ peptide levels result in series [1] is “accumulation of polyQ peptides”.
In the case of “DnaJB6: member of the Hsp40/DnaJ heat shock protein family, co-expressed chaperone”, the “amount of polyQ peptides in the SDS-insoluble fraction” value with polyQ peptides (Q65) is “remarkably reduced”. In addition, the “polyQ peptides in the SDS-soluble fraction” value in the series with polyQ peptides (Q65) (FIG. 8A and B) is reported as “marked decrease”. For the same molecule, the “aggregation on co-expression with GFP-Ub-Q65” value in the series with HEK293T cells is given as “considerable decrease in aggregation”.
For the molecule tripeptidyl peptidase II [TPPII], in series [1], the polyQ peptide levels result is listed as “reduced polyQ levels”. Moreover, the “aggregated and low-molecular weight Q65 peptide levels” value in series [1] (co-expression with GFP-Ub-Q65, immunoblot 1C2, FIG. 7) was “decrease in both aggregated and low-molecular weight Q65 peptides”.

B1: DnaJB8: member of the Hsp40/DnaJ heat shock protein family, co-expressed chaperone (protein, UniProt Q8NHS0 1-232, looked up)
DnaJ homolog subfamily B …: MANYYEVLGVQASASPEDIKKAYRKLALRWHPDKNPDNKEEAEKKFKLVSEAYEVLSDSKKRSLYDRAGCDSWRAGGGASTPYHSPFDTGYTFRNPEDIFREFFGGLDPFSFEFWDSPFNSDRGGRGHGLRGAFSAGFGEFPAFMEAFSSFNMLGCSGGSHTTFSSTSFGGSSSGSSGFKSVMSSTEMINGHKVTTKRIVENGQERVEVEEDGQLKSVTVNGKEQLKWMDSK
As to B1, the “amount of polyQ peptides in the SDS-insoluble fraction” value in the series with polyQ peptides (Q65) was “remarkably reduced”. For the same molecule, in the series with HEK293T cells, the “aggregation on co-expression with GFP-Ub-Q65” value is listed as “considerable decrease in aggregation”.
